Results on 1 compound are retold here after patent publication EP0947515A1, “NOVEL NAPHTHYRIDINE DERIVATIVES” (SUMITOMO PHARMACEUTICALS COMPANY, LIMITED, priority 1996, dated 1998).

The test system of assay [1] is ACAT. Put plainly: Assay of ACAT inhibitory activity in a specimen prepared from rabbit liver. The class given is biochemical, New Zealand white rabbit. The conditions noted are these: enzyme specimen from liver of cholesterol-fed rabbit, [1-14C]oleoyl-CoA and endogenous cholesterol, 0.1 µM. As to the method:
1. Assay of ACAT inhibitory activity in a specimen prepared from rabbit liver
An enzyme specimen ACAT was prepared according to the method disclosed in the literature: J. Lipid. Research, 30, 681-690, 1989, from the liver of New Zealand white rabbit, which had been fed with 1 % cholesterol feed for one month. The ACAT activity was determined according to the method disclosed in the literature: J. Lipid Research, 24, 1127-1134, 1983, i.e., using radioactive [1-14C]oleoyl-CoA and endogenous cholesterol contained in the liver microsome, and calculated from the radioactivity of the labeled cholesterol oleate.

In assay [2] the target is T1, ACAT (Rattus norvegicus, UniProt O70536).
T1 construct: The rat peritoneal-derived macrophage was prepared; endogenous in cells; host or cells: rat peritoneal macrophages (primary)
T1 sequence (O70536 1-545): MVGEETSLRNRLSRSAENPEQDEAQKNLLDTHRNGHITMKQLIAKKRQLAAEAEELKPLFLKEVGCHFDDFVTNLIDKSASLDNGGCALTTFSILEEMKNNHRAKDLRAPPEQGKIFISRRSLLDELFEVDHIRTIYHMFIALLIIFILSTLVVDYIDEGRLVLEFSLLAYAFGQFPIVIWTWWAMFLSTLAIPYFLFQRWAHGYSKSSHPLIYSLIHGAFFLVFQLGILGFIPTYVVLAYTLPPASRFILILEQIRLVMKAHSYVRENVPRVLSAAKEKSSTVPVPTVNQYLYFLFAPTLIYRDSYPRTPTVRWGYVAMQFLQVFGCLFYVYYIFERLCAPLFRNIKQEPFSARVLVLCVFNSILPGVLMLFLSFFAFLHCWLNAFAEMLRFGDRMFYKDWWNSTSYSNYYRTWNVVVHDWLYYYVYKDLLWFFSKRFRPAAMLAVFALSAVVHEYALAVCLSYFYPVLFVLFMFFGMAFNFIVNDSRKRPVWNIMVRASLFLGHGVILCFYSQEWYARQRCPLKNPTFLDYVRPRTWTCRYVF
Put plainly: Assay of ACAT inhibitory activity in the macrophage derived from rat peritoneal. The class given is cell-based. The note with it: 10^-7 M, radioactive oleic acid and exogenous cholesterol in liposome, read-out: ACAT inhibitory rate (%) 10^-7 M. The protocol:
2. Assay of ACAT inhibitory activity in the macrophage derived from rat peritoneal
The rat peritoneal-derived macrophage was prepared according to the method disclosed in the literature: Biochimica et Biophysica Acta, 1126, 73-80, 1992. The ACAT activity was determined by a modified method of the method disclosed in the above literature: Biochimica et Biophysica Acta, 1126, 73-80, 1992, i.e., using radioactive [9, 10-H]oleic acid and exogenous cholesterol contained in the liposome which was reconstituted according to the method disclosed in the literature: Biochimica et Biophysica Acta, 1213, 127-134, 1994, and calculated from the radioactivity of the labeled cholesterolyl oleate.

Turning to `CCCCn1c(=O)c(NC(=O)Nc2c(C(C)C)cccc2C(C)C)c(-c2cccc(C#CCN3CCCC3)c2)c2cccnc21` [Example 90, N-[1-butyl-4-[3-{3-(1-pyrrolidinyl)-1-propynyl)phenyl}-1,2-dihydro-2-oxo-1,8-naphthyridin-3-yl)-N'-(2,6-diisopropylphenyl)urea], in assay [1], the “ACAT inhibitory rate (%) 10^-7 M” value turned out to be 39%. Moreover, in assay [2], the inhibition at 0.1 µM was determined as 96%.
